# Source: patent US11976083B2, “Inhibitors of peptidylarginine deiminases” (Gilead Sciences, Inc., priority 2020, dated 2024)
# Target: T1, human PAD4 (Homo sapiens, UniProt Q9UM07)
# T1 construct: human PAD4 (NM_012387), A2-P663, was PCR amplified; His-SUMO (N, cleaved yes); made in house; host or cells: E. coli BL21(DE3)
# Assay: In vitro PAD4 BAEE biochemical assay
# Settings: BAEE substrate 3 mM, 5 nM PAD4, 2 mM calcium chloride; geometric mean of multiple experiments
# Summary of the method: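 Assay was run at 25 °C using 3 mM BAEE and 5 nM human PAD4 after a 30 min compound preincubation; ammonia produced over 2 h was quantified by OPA-derived fluorescence. Full inhibition was defined by 50 µM BB-Cl-Amidine, and IC50 came from variable-slope nonlinear regression.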
# T1 sequence (Q9UM07 2-663): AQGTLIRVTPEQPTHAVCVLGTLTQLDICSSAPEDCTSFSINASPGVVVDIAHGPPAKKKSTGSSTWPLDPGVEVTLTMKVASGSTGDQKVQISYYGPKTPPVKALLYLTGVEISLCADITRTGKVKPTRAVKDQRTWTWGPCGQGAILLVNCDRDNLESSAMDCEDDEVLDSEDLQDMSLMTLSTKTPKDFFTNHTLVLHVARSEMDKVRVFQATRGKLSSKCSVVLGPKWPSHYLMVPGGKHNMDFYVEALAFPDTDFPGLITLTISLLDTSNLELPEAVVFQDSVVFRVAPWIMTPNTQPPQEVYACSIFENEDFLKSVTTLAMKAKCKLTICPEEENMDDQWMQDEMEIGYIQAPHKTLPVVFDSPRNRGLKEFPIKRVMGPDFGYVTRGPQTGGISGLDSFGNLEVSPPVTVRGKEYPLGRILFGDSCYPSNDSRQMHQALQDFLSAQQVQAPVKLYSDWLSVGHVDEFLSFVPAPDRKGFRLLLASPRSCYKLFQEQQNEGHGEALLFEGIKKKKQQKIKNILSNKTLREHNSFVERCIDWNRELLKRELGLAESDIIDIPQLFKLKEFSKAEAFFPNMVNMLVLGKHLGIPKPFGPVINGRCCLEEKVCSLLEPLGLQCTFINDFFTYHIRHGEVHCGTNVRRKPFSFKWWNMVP
row,SMILES,IC50
1,"COc1cc(C(=O)N2CCC[C@@H](N)C2)cc2nc(-c3cc4ccc5nc4n3C[C@@H]3C[C@H]3COC[C@@H](C)C(=O)N[C@@H]5C)n(C)c12 [Example 265, (5~{R},9~{R},12~{R})-18-[5-[(3~{R})-3-aminopiperidine-1-carbonyl]-7-methoxy-1-methyl-benzimidazol-2-yl]-9,12-dimethyl-7-oxa-1,11,20-triazatetracyclo[11.5.2.0^{3,5}.0^{16,19}] icosa-13(20),14,16(19),17-tetraen-10-one]",0.081 µM
2,"C[C@H]1NC(=O)C(C)(C)CCCCCCn2c(-c3nc4cc(C(=O)N[C@H]5CNCC[C@@H]5F)c(F)c(F)c4n3C)cc3ccc1nc32 [Example 538, 6,7-difluoro-~{N}-[(3~ {S},4~{S})-4-fluoro-3-piperidyl]-1-methyl-2-[(11~{R})-8,8,11-trimethyl-9-oxo-1,10,19-triazatricyclo[10.5.2.0^ {15,18}]nonadeca-12(19),13,15(18),16-tetraen-17-yl]benzimidazole-5-carboxamide]",0.09 µM
3,"COc1cc(C(=O)N2C[C@H]3CC[C@@H]2[C@@H]3N)cc2nc(-c3cc4ccc5nc4n3CCCCCCC(C)(C)C(=O)N[C@@H]5C)n(C)c12 [Example 13, (11~{R})-17-[5-[(1~{R},4~{R},7~{R})-7-amino-2-azabicyclo[2.2.1]heptane-2-carbonyl]-7-methoxy-1-methyl-benzimidazol-2-yl]-8,8,11-trimethyl-1,10,19-triazatricyclo[10.5.2.0^{15,18}]nonadeca-12(19),13,15(18),16-tetraen-9-one]",0.121 µM
4,"COc1cc(C(=O)N2[C@H]3CC[C@@H]2[C@H](N)C3)cc2nc(-c3cc4ccc5nc4n3CCCCCCCC(=O)N(C)[C@@H]5C)c(C)n12 [Example 319, (11~{R})-17-[7-[(1~{R},2~{R},4~{S})-2-amino-7-azabicyclo[2.2.1]heptane-7-carbonyl]-5-methoxy-3-methyl-imidazo[1,2-a]pyridin-2-yl]-10,11-dimethyl-1,10,19-triazatricyclo[10.5.2.0^{15,18}]nonadeca-12(19),13,15(18),16-tetraen-9-one]",0.266 µM
5,"COc1cc(C(=O)N2CC[C@@H](F)[C@@H](N)C2)cc2nc(-c3cc4ccc5nc4n3CCCCCCC(C)(C)C(=O)N[C@@H]5C)n(C)c12 [Example 276, (11~{R})-17-[5-[(3~{S},4~{R})-3-amino-4-fluoro-piperidine-1-carbonyl]-7-methoxy-1-methyl-benzimidazol-2-yl]-8,8,11-trimethyl-1,10,19-triazatricyclo[10.5.2.0^{15,18}]nonadeca-12(19),13,15(18),16-tetraen-9-one]",0.343 µM
6,"COc1cc(C(=O)N[C@H]2CNC[C@@H](C(F)F)C2)cc2nc(-c3cc4ccc5nc4n3CC(F)(F)CCC[C@@H]3C[C@H]3C(=O)N[C@@H]5C)n(C)c12 [Example 633, 2-[(2~{R},5~{R},7~{R})-11,11-difluoro-2-methyl-4-oxo-3,13,19-triazatetracyclo[11.5.2.0^ {5,7}.0^{16,20}]icosa-1(19),14,16(20), 17-tetraen-14-yl]- ~{N}-[(3~{R},5~{S})-5-(difluoromethyl)-3-piperidyl]-7-methoxy-1-methyl-benzimidazole-5-carboxamide]",0.057 µM
7,"COc1cc(C(=O)N2CCC[C@@H](N)C2)cc2nc(-c3cc4ccc5nc4n3CCCCCCOc3ccccc3C(=O)N[C@@H]5C)c(C)n12 [Example 147, (2~{R})-19-[7-[(3~{R})-3-aminopiperidine-1-carbonyl]-5-methoxy-3-methyl-imidazo[1,2-a]pyridin-2-yl]-2-methyl-11-oxa-3,18,24-triazatetracyclo [16.5.2.0^{5,10}.0^{21,25}] pentacosa-1(24),5(10),6,8,19,21(25),22-heptaen-4-one]",0.365 µM
8,"COc1cc(C(=O)N2[C@H]3CC[C@@H]2[C@H](N)C3)cc2nc(-c3cc4ccc5nc4n3CCCCC[C@@H](OC)C(C)(C)C(=O)N[C@@H]5C)n(C)c12 [Example 219, (7~{R},11~{R})-17-[5-[(1~{R},2~{R},4~{S})-2-amino-7-azabicyclo[2.2.1]heptane-7-carbonyl]-7-methoxy-1-methyl-benzimidazol-2-yl]-7-methoxy-8,8,11-trimethyl-1,10,19-triazatricyclo[10.5.2.0^{15,18}]nonadeca-12(19),13,15(18),16-tetraen-9-one]",0.072 µM
9,"COc1cc(C(=O)N[C@@H]2CC[C@H](C)NC2)cc2nc(-c3cc4ccc5nc4n3CCCCCCC(C)(C)C(=O)N[C@@H]5C)n(C)c12 [Example 73, 7-methoxy-1-methyl-~{N}-[(3~{R},6~{S})-6-methyl-3-piperidyl]-2-[(11~{R})-8,8,11-trimethyl-9-oxo-1,10,19-triazatricyclo[10.5.2.0^{15,18}]nonadeca-12(19),13,15(18),16-tetraen-17-yl]benzimidazole-5-carboxamide]",0.125 µM
10,"COc1ccnc2c1C(=O)N[C@H](C)c1ccc3cc(-c4nc5cc(C(=O)N6CC[C@@H](OC)[C@@H](N)C6)cc(OC)c5n4C)n(c3n1)CCCCC2 [Example 630, (2~{R})-17-[5-[(3~{S),4~ {R})-3-amino-4-methoxy-piperidine-1-carbonyl]-7-methoxy-1-methyl-benzimidazol-2-yl]-6-methoxy-2-methyl-3,9,16,22-tetrazatetracyclo[14.5.2.0^ {5,10}.0^{19,23}] tricosa-1(22),5(10), 6,8,17,19(23),20-heptaen-4-one]",0.122 µM
11,"COc1cc(C(=O)N2CCC[C@@H](N)C2)cc2nc(-c3cc4ccc5nc4n3C[C@H]3C[C@@H]3COCCC(=O)N[C@@H]5C)n(C)c12 [Example 149, (3~{S},5~{S},12~{R})-18-[5-[(3~{R})-3-aminopiperidine-1-carbonyl]-7-methoxy-1-methyl-benzimidazol-2-yl]-12-methyl-7-oxa-1,11,20-triazatetracyclo[11.5.2.0^{3,5}.0^{16,19}] icosa-13(20),14,16(19),17-tetraen-10-one]",0.046 µM
12,COc1cc(C(=O)N2C[C@H](N)[C@@H]3CC[C@H]2C3)cc2nc(-c3cc4ccc5nc4n3CCCCCCCN(C(C)=O)[C@@H]5C)n(C)c12 [Example 907],0.082 µM

# The next molecules have a lower IC50 than those just listed; values first:
row,IC50,SMILES
1,0.037 µM,"C[C@H]1NC(=O)[C@@H]2C[C@H]2CCCC(F)(F)Cn2c(-c3nc4cc(C(=O)N[C@H]5CNCC[C@@H]5F)c(F)cc4n3C)cc3ccc1nc32 [Example 595, 2-[(2~{R},5~{R},7~ {R})-11,11-difluoro-2-methyl-4-oxo-3,13,19-triazatetracyclo[11.5.2.0^ {5,7}.0^{16,20}]icosa-1(19),14,16(20),17-tetraen-14-yl]-6-fluoro-~ {N}-[(3~{S},4~{S})-4-fluoro-3-piperidyl]-1-methyl-benzimidazole-5-carboxamide]"
2,0.032 µM,"C[C@H]1NC(=O)[C@@H]2[C@@H](CCCC(F)(F)Cn3c(-c4nc5cc(C(=O)N[C@H]6CNCC[C@@H]6F)c(F)cc5n4C)cc4ccc1nc43)C2(F)F [Example 377, 6-fluoro-~{N}-[(3~{S},4~{S})-4-fluoro-3-piperidyl]-1-methyl-2-[(2~{R},5~{S},7~{R})-6,6,11,11-tetrafluoro-2-methyl-4-oxo-3,13,19-triazatetracyclo[11.5.2.0^{5,7}.0^{16,20}]icosa-1(19),14,16(20),17-tetraen-14-yl]benzimidazole-5-carboxamide]"
3,0.018 µM,"COc1cc(C(=O)N2[C@H]3CC[C@@H]2[C@H](N)C3)cc2nc(-c3cc4ccc5nc4n3CCCCCCCCC(=O)N[C@@H]5C)c(C)n12 [Example 318, (12~{R})-18-[7-[(1~{R},2~{R},4~{S})-2-amino-7-azabicyclo[2.2.1]heptane-7-carbonyl]-5-methoxy-3-methyl-imidazo[1,2-a]pyridin-2-yl]-12-methyl-1,11,20-triazatricyclo[11.5.2.0^{16,19}]icosa-13(20),14,16(19),17-tetraen-10-one]"
4,0.016 µM,"[2H]C1([2H])[C@H](N)[C@@H]2CC[C@@H](C2)N1C(=O)c1cc(OC)c2c(c1)nc(-c1cc3ccc4nc3n1CC(F)(F)CCC[C@@H]1C[C@H]1C(=O)N[C@@H]4C)n2C [Example 765, (2~{R},5~{R},7~{R})-14-[5-[(1~{S},4~{R},5~{R})-4-amino-3,3-dideuterio-2-azabicyclo[3.2.1]octane-2-carbonyl]-7-methoxy-1-methyl-benzimidazol-2-yl]-11,11-difluoro-2-methyl-3,13,19-triazatetracyclo[11.5.2.0^ {5,7}.0^{16,20}]icosa-1(19),14,16(20),17-tetraen-4-one]"
5,0.028 µM,"COc1cc(C(=O)N2[C@H]3CC[C@@H]2[C@H](N)C3)cc2nc(-c3cc4ccc5nc4n3C[C@H]3C[C@H]3CC[C@@H]3C[C@H]3C(=O)N[C@@H]5C)n(C)c12 [Example 142, (3~{S),5~{R},8~{R},10~{R},13~{R})-19-[5-[(1~{R},2~{R},4~{S})-2-amino-7-azabicyclo[2.2.1]heptane-7-carbonyl]-7-methoxy-1-methyl-benzimidazol-2-yl]-13-methyl-1,12,21-triazapentacyclo[12.5.2.0^{3,5}.0^{8,10}.0^ {17,20}]henicosa-14(21),15,17(20),18-tetraen-11-one]"
6,0.022 µM,"CO[C@@H]1CCN(C(=O)c2cc(F)c3c(c2)nc(-c2cc4ccc5nc4n2CC(F)(F)CCC[C@@H]2C[C@H]2C(=O)N[C@@H]5C)n3C2C[C@H]2F)C[C@@H]1N (stereo partly drawn) [Example 745, (2~{R},5~{R},7~{R})-14-[5-[(3~{S},4~{R})-3-amino-4-methoxy-piperidine-1-carbonyl]-7-fluoro-1-[(1~{S},2~{R})-2-fluorocyclopropyl]benzimidazol-2-yl]-11,11-difluoro-2-methyl-3,13,19-triazatetracyclo [11.5.2.0^{5,7}.0^{16,20}]icosa-1(19),14,16(20),17-tetraen-4-one]"
